The source of these data is patent publication US20090018134A1, “Compounds - 945” (AstraZeneca AB, priority 2007, published 2009).

T1 sequence (P42345 1362-2549): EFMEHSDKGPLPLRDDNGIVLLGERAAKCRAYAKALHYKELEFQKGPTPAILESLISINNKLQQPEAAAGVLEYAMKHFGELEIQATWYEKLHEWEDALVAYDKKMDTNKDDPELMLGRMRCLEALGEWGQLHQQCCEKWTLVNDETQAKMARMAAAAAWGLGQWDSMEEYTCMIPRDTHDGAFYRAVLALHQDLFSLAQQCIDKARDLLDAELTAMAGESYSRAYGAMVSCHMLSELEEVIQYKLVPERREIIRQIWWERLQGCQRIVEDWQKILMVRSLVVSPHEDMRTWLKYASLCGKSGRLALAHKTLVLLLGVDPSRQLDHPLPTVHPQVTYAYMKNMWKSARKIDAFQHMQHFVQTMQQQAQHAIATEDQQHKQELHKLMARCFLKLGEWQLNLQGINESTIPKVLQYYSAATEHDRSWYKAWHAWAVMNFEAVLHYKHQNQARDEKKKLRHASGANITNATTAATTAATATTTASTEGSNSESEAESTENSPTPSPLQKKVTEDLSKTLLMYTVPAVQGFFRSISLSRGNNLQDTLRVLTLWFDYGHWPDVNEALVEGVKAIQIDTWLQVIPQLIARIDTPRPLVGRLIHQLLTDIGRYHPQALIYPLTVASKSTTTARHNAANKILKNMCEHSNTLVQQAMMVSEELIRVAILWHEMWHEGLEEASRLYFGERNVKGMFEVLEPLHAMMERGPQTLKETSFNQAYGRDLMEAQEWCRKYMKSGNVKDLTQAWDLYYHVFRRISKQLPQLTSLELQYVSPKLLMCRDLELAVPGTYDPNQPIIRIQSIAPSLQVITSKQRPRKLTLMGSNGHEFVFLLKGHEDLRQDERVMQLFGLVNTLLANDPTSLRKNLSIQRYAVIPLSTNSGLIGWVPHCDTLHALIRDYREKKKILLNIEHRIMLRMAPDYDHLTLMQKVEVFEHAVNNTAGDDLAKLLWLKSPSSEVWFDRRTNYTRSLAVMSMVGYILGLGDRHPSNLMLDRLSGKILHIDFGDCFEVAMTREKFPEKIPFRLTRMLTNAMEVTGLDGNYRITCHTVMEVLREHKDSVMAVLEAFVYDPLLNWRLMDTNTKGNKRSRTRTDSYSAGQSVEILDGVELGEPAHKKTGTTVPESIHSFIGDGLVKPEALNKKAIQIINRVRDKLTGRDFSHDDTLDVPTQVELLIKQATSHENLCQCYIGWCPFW

One assay has as its target T1, mTOR (Homo sapiens, UniProt P42345).
T1 construct: FLAG; made in house
Briefly: In Vitro mTOR Kinase Assay (Echo), Test (a)(ii). It is filed as biochemical. The note with it: read-out: mTOR Kinase Assay (Echo). The source says:
(a)(ii) In Vitro mTOR Kinase Assay (Echo)
The assay used AlphaScreen technology (Gray et al., Analytical Biochemistry, 2003, 313: 234-245) to determine the ability of test compounds to inhibit phosphorylation by recombinant mTOR.
A C-terminal truncation of mTOR encompassing amino acid residues 1362 to 2549 of mTOR (EMBL Accession No. L34075) was stably expressed as a FLAG-tagged fusion in HEK293 cells as described by Vilella-Bach et al., […], 1999, 274, 4266-4272. The HEK293 FLAG-tagged mTOR (1362-2549) stable cell line was routinely maintained at 37° C. with 5% CO2 up to a confluency of 70-90% in Dulbecco's modified Eagle's growth medium (DMEM; Invitrogen Limited, Paisley, UK Catalogue No. 41966-029) containing 10% heat-inactivated foetal calf serum (FCS; Sigma, Poole, Dorset, UK, Catalogue No. F0392), 1% L-glutamine (Gibco, Catalogue No. 25030-024) and 2 mg/ml Geneticin (G418 sulfate; Invitrogen Limited, UK Catalogue No. 1013 1-027). Following expression in the mammalian HEK293 cell line, expressed protein was purified using the FLAG epitope tag using standard purification techniques.
Aliquots (120 nl […]) of each compound dilution were acoustically dispensed placed using a Labcyte Echo 550 into a well of a Greiner 384-well low volume (LV) white polystyrene plate (Greiner Bio-one).
These assay solutions were incubated for 2 hours at room temperature.
Each reaction was stopped by the addition of […] of a mixture of EDTA (50 mM), bovine serum albumin (BSA; 0.5 mg/mL) and Tris-HCl pH 7.4 buffer (50 mM) containing p70 S6 Kinase (T389) 1A5 Monoclonal Antibody (Cell Signalling Technology, Catalogue No. 9206B) and AlphaScreen Streptavidin donor and Protein A acceptor beads (200 ng; Perkin Elmer, Catalogue No. 6760002B and 6760137R respectively) were added and the assay plates were left overnight at room temperature in the dark. The resultant signals arising from laser light excitation at 680 nm were read using a Packard Envision instrument.
The phosphorylated biotinylated peptide that is associated with AlphaScreen Streptavidin donor beads forms a complex with the p70 S6 Kinase (T389) 1A5 Monoclonal Antibody that is associated with Alphascreen Protein A acceptor beads. Upon laser light excitation at 680 nm, the donor bead: acceptor bead complex produces a signal that can be measured. Accordingly, the presence of mTOR kinase activity results in an assay signal. In the presence of an mTOR kinase inhibitor, signal strength is reduced.
mTOR enzyme inhibition for a given test compound was expressed as an IC50 value.
For `C[C@H]1COCCN1c1cc(C2(S(=O)(=O)C3CC3)CC2)nc(-c2ccc(NC(=O)Nc3cnn(C)c3)cc2)n1` [Example 3m, 1-[4-[4-(1-cyclopropylsulfonylcyclopropyl)-6-[(3S)-3-methylmorpholin-4-yl]pyrimidin-2-yl]phenyl]-3-(1-methylpyrazol-4-yl)urea], the IC50 amounted to 0.497 nM.

As for `C[C@H]1COCCN1c1cc(C2(S(=O)(=O)C3CC3)CC2)nc(-c2ccc(NC(=O)NCC(C)(C)CO)cc2)n1` [Example 3n, 1-[4-[4-(1-cyclopropylsulfonylcyclopropyl)-6-[(3S)-3-methylmorpholin-4-yl]pyrimidin-2-yl]phenyl]-3-(3-hydroxy-2,2-dimethylpropyl)urea], the IC50 worked out at 39.6 nM.

As for `C[C@H]1COCCN1c1cc(C2(S(=O)(=O)C3CC3)CC2)nc(-c2ccc(NC(=O)NCCC#N)cc2)n1` [Example 3o, 3-(2-cyanoethyl)-1-[4-[4-(1-cyclopropylsulfonylcyclopropyl)-6-[(3S)-3-methylmorpholin-4-yl]pyrimidin-2-yl]phenyl]urea], the IC50 came to 5.96 nM.

For the molecule `C[C@H]1COCCN1c1cc(C2(S(=O)(=O)C3CC3)CC2)nc(-c2ccc(NC(=O)NCCN3CCCC3)cc2)n1` [Example 3p, 1-[4-[4-(1-cyclopropylsulfonylcyclopropyl)-6-[(3S)-3-methylmorpholin-4-yl]pyrimidin-2-yl]phenyl]-3-(2-pyrrolidin-1-ylethyl)urea], the IC50 stood at 193 nM.

As for `C[C@H]1COCCN1c1cc(C2(S(=O)(=O)C3CC3)CC2)nc(-c2ccc(NC(=O)NCC(O)C(F)(F)F)cc2)n1` (stereo partly drawn) [Example 3q, 1-[4-[4-(1-cyclopropylsulfonylcyclopropyl)-6-[(3S)-3-methylmorpholin-4-yl]pyrimidin-2-yl]phenyl]-3-(3,3,3-trifluoro-2-hydroxypropyl)urea], the IC50 is 8.39 nM.

Regarding `C[C@H]1COCCN1c1cc(C2(S(=O)(=O)C3CC3)CC2)nc(-c2ccc(NC(=O)NCC(C)(C)O)cc2)n1` [Example 3r, 1-[4-[4-(1-cyclopropylsulfonylcyclopropyl)-6-[(3S)-3-methylmorpholin-4-yl]pyrimidin-2-yl]phenyl]-3-(2-hydroxy-2-methylpropyl)urea], the IC50 was 48.8 nM.

As for `C[C@H]1COCCN1c1cc(C2(S(=O)(=O)C3CC3)CC2)nc(-c2ccc(NC(=O)NC3(CO)CC3)cc2)n1` [Example 3s, 1-[4-[4-(1-cyclopropylsulfonylcyclopropyl)-6-[(3S)-3-methylmorpholin-4-yl]pyrimidin-2-yl]phenyl]-3-[1-(hydroxymethyl)cyclopropyl]urea], the IC50 is 26.3 nM.

With `C[C@H]1COCCN1c1cc(C2(S(=O)(=O)C3CC3)CC2)nc(-c2ccc(NC(=O)NC3COC3)cc2)n1` [Example 3t, 1-[4-[4-(1-cyclopropylsulfonylcyclopropyl)-6-[(3S)-3-methylmorpholin-4-yl]pyrimidin-2-yl]phenyl]-3-(oxetan-3-yl)urea], the IC50 was 4.79 nM.

Regarding `C[C@H]1COCCN1c1cc(C2(S(=O)(=O)C3CC3)CC2)nc(-c2ccc(NC(=O)Nc3ccn(C)n3)cc2)n1` [Example 3u, 1-[4-[4-(1-cyclopropylsulfonylcyclopropyl)-6-[(3S)-3-methylmorpholin-4-yl]pyrimidin-2-yl]phenyl]-3-(1-methylpyrazol-3-yl)urea], the IC50 was 0.604 nM.

As for `C[C@H]1COCCN1c1cc(C2(S(=O)(=O)C3CC3)CC2)nc(-c2ccc(NC(=O)Nc3ncns3)cc2)n1` [Example 3w, 1-[4-[4-(1-cyclopropylsulfonylcyclopropyl)-6-[(3S)-3-methylmorpholin-4-yl]pyrimidin-2-yl]phenyl]-3-(1,2,4-thiadiazol-5-yl)urea], the IC50 was determined as 0.89 nM.

Consider `CNC(=O)Nc1ccc(-c2nc(N3CCOC[C@@H]3C)cc(C3(S(C)(=O)=O)CCCC3)n2)cc1` [Example 4, 3-Methyl-1-[4-[4-[(3S)-3-methylmorpholin-4-yl]-6-(1-methylsulfonylcyclopentyl)pyrimidin-2-yl]phenyl]urea], for which the IC50 stood at 0.699 nM.

Consider `CCNC(=O)Nc1ccc(-c2nc(N3CCOC[C@@H]3C)cc(C3(S(C)(=O)=O)CCCC3)n2)cc1` [Example 4a, 3-ethyl-1-[4-[4-[(3S)-3-methylmorpholin-4-yl]-6-(1-methylsulfonylcyclopentyl)pyrimidin-2-yl]phenyl]urea], for which the IC50 is 2.16 nM.

As to `CC(C)NC(=O)Nc1ccc(-c2nc(N3CCOC[C@@H]3C)cc(C3(S(C)(=O)=O)CCCC3)n2)cc1` [Example 4c, 1-[4-[4-[(3S)-3-methylmorpholin-4-yl]-6-(1-methylsulfonylcyclopentyl)pyrimidin-2-yl]phenyl]-3-propan-2-yl-urea], the IC50 was 16.9 nM.

For `C[C@H]1COCCN1c1cc(C2(S(C)(=O)=O)CCCC2)nc(-c2ccc(NC(=O)NC3CCC3)cc2)n1` [Example 4d, 3-cyclobutyl-1-[4-[4-[(3S)-3-methylmorpholin-4-yl]-6-(1-methylsulfonylcyclopentyl)pyrimidin-2-yl]phenyl]urea], the IC50 was determined as 10 nM.

In the case of `C[C@H]1COCCN1c1cc(C2(S(C)(=O)=O)CCCC2)nc(-c2ccc(NC(=O)NCCO)cc2)n1` [Example 4e, 3-(2-hydroxyethyl)-1-[4-[4-[(3S)-3-methylmorpholin-4-yl]-6-(1-methylsulfonylcyclopentyl)pyrimidin-2-yl]phenyl]urea], the IC50 stood at 1.19 nM.

For the molecule `C[C@H]1COCCN1c1cc(C2(S(C)(=O)=O)CCCC2)nc(-c2ccc(NC(=O)NC(C)(C)CO)cc2)n1` [Example 4f, 3-(1-hydroxy-2-methyl-propan-2-yl)-1-[4-[4-[(3S)-3-methylmorpholin-4-yl]-6-(1-methylsulfonylcyclopentyl)pyrimidin-2-yl]phenyl]urea], the IC50 was 10 nM.

`C[C@H]1COCCN1c1cc(C2(S(C)(=O)=O)CCCC2)nc(-c2ccc(NC(=O)NCCN(C)C)cc2)n1` [Example 4g, 3-(2-dimethylaminoethyl)-1-[4-[4-[(3S)-3-methylmorpholin-4-yl]-6-(1-methylsulfonylcyclopentyl)pyrimidin-2-yl]phenyl]urea]: the IC50 came out at 62.6 nM.

For `CCCNC(=O)Nc1ccc(-c2nc(N3CCOC[C@@H]3C)cc(C3(S(C)(=O)=O)CCCC3)n2)cc1` [Example 4h, 1-[4-[4-[(3S)-3-methylmorpholin-4-yl]-6-(1-methylsulfonylcyclopentyl)pyrimidin-2-yl]phenyl]-3-propyl-urea], the IC50 stood at 1.57 nM.

Regarding `CC(C)CNC(=O)Nc1ccc(-c2nc(N3CCOC[C@@H]3C)cc(C3(S(C)(=O)=O)CCCC3)n2)cc1` [Example 4i, 1-[4-[4-[(3S)-3-methylmorpholin-4-yl]-6-(1-methylsulfonylcyclopentyl)pyrimidin-2-yl]phenyl]-3-(2-methylpropyl)urea], the IC50 is 11.5 nM.

Consider `C[C@H]1COCCN1c1cc(C2(S(C)(=O)=O)CCCC2)nc(-c2ccc(NC(=O)NCCCO)cc2)n1` [Example 4j, 3-(3-hydroxypropyl)-1-[4-[4-[(3S)-3-methylmorpholin-4-yl]-6-(1-methylsulfonylcyclopentyl)pyrimidin-2-yl]phenyl]urea], for which the IC50 is 4.61 nM.

`C[C@H]1COCCN1c1cc(C2(S(C)(=O)=O)CCCC2)nc(-c2ccc(NC(=O)Nc3ccc(C(F)(F)F)cc3)cc2)n1` [Example 4k, 1-[4-[4-[(3S)-3-methylmorpholin-4-yl]-6-(1-methylsulfonylcyclopentyl)pyrimidin-2-yl]phenyl]-3-[4-(trifluoromethyl)phenyl]urea]: the IC50 came out at 9.05 nM.

Still in this assay, the particulars now being: table of enzyme assay Test (a)(ii); read-out: Test (a)(ii) IC50.
In the case of `CCNC(=O)Nc1ccc(-c2nc(N3CCOC[C@@H]3C)cc(C3(S(C)(=O)=O)CCCC3)n2)cc1` [Example 4a, 3-ethyl-1-[4-[4-[(3S)-3-methylmorpholin-4-yl]-6-(1-methylsulfonylcyclopentyl)pyrimidin-2-yl]phenyl]urea], the IC50 was 2.17 nM.

Consider `C[C@H]1COCCN1c1cc(C2(S(C)(=O)=O)CCCC2)nc(-c2ccc(NC(=O)NCCO)cc2)n1` [Example 4e, 3-(2-hydroxyethyl)-1-[4-[4-[(3S)-3-methylmorpholin-4-yl]-6-(1-methylsulfonylcyclopentyl)pyrimidin-2-yl]phenyl]urea], for which the IC50 was determined as 0.767 nM.

As for `CCCNC(=O)Nc1ccc(-c2nc(N3CCOC[C@@H]3C)cc(C3(S(C)(=O)=O)CCCC3)n2)cc1` [Example 4h, 1-[4-[4-[(3S)-3-methylmorpholin-4-yl]-6-(1-methylsulfonylcyclopentyl)pyrimidin-2-yl]phenyl]-3-propyl-urea], the IC50 amounted to 1.46 nM.

Turning to `C[C@H]1COCCN1c1cc(C2(S(C)(=O)=O)CCCC2)nc(-c2ccc(NC(=O)NCCCO)cc2)n1` [Example 4j, 3-(3-hydroxypropyl)-1-[4-[4-[(3S)-3-methylmorpholin-4-yl]-6-(1-methylsulfonylcyclopentyl)pyrimidin-2-yl]phenyl]urea], the IC50 was 3.79 nM.
